In US5627271A, “Glycolipids, their preparation and use” (Genzyme Limited, priority 1992, dated 1997):
Values joined by “and” are separate entries in the source; they are usually repeats but may differ in a detail not shown here. Equal values may be shown once. Values belong to the compound of their own block, whether it stands above or below them.

Experiments:
[1] = biological target: T1, α2-3 sialyltransferase (Sus scrofa, UniProt Q02745); assay: Incorporation of radio-labelled CMP-NANA into glycolipid acceptors by α2-3 sialyltransferase; format: biochemical, porcine
T1 construct: from porcine liver; from tissue; host or cells: porcine liver
T1 sequence (Q02745 1-343): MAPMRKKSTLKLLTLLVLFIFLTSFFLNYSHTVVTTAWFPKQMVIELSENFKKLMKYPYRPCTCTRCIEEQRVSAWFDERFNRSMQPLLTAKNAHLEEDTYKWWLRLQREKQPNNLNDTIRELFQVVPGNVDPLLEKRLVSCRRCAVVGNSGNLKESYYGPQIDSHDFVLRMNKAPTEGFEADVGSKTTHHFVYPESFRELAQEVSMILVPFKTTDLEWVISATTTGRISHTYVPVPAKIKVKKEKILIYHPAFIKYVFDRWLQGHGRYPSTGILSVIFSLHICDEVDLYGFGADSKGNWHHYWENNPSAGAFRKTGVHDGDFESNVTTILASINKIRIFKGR
Procedure: (§1) Various glycolipids have been incubated with α2-3 and α2-6 sialyltransferases (from porcine and rat liver) in the presence of radio-labelled CMP-NANA. […] Other glycolipids could accept NANA, but in relatively low yields.
However, this transferase should be able to use glycolipid (54) as an acceptor.

[2] = biological target: T2, α2-6 sialyltransferase (Rattus norvegicus, UniProt P13721); assay: Incorporation of radio-labelled CMP-NANA into glycolipid acceptors by α2-6 sialyltransferase; format: biochemical
T2 construct: (from porcine and rat liver); from tissue; host or cells: rat liver
T2 sequence (P13721 1-403): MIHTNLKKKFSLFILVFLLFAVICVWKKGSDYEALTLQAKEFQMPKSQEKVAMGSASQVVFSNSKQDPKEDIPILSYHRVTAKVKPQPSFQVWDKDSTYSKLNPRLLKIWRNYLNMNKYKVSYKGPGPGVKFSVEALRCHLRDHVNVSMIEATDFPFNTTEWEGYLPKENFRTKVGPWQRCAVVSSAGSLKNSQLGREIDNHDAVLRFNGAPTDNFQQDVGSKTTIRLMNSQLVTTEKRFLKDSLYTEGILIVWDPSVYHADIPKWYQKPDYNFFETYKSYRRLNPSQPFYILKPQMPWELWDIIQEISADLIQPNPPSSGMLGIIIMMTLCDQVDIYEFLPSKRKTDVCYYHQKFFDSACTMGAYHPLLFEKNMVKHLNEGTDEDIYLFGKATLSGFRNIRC
Procedure: as §1

[3] = tested on: galactosyltransferase; assay: Test as substrate for galactosyltransferase; format: biochemical, bovine; details: with and without the detergent Triton CF-54
Procedure: Compound (28): The acceptor (27) (16.5 mg, 31.2 μmol) was sonicated carefully for 15 min in 39 μl of 40 mM MnCl2, 93 μl of 50 mM NaN3, 102 μl and 330 μl of sodium cacodylate buffer pH 7.4 100 mM and 50 mM respectively. Then 35 μl of 2% BSA, 5.5 μl (5.5 U) of 1 U/μl calf intestinal alkaline phosphatase, 143 μl (1.92 U) of 6.7 U/500 μl UDP-Glc 4--epimerase, 29 μl (487 mU) of 8.4 U/500 μl galactosyl-transferase and 21.9 mg (37.9 μmol, 1.2 eq.) of UDP-Glc were added. The final concentrations were as follows: [Acceptor]=40 mM, [UDP-Glc]=49 mM, [MnCl2 ]=2 mM, [NAN3 ]=6 mM, [Sodium cacodylate]=50 mM.
The GlcNAc ceramide (40) has been tested as a substrate for the galactosyltransferase with and without the addition of the detergent Triton CF-54. No conversion was obtained.

[4] = biological target: T3, α1-3 fucosyl transferase VI (Homo sapiens, UniProt P51993); assay: Test as substrate for α1-3 fucosyl transferase VI with radio-labelled GDP-[14C]fucose; format: biochemical; details: for Competition for incorporation of fucose into lipid (acceptor quality): 0.2 mM (28) with 0 to 2 mM N-acetyllactosamine; for Percentage of fucose transferred: 0.5 mU fucosyl transferase, 1 hour
T3 sequence (P51993 1-359): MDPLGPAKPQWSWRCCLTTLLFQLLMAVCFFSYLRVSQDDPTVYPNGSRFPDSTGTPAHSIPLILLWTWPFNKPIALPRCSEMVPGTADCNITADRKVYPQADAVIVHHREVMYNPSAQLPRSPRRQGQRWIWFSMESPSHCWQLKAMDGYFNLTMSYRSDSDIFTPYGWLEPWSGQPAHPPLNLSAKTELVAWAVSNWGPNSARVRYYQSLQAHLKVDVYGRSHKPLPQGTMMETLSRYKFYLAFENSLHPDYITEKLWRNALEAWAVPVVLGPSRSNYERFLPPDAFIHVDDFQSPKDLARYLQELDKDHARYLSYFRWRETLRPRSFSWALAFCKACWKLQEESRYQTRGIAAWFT
Procedure: The acceptor (28) was tested as a substrate for α1-3 fucosyl transferase VI, by incubation with the enzyme and radio-labelled GDP-[^14 C]fucose. The reaction conditions were: 45 mM Mes pH 6.5; 27 μM GDP-Fuc; 0.1% BSA; 0.1 mM NaCl; 5 mM MnCl2; 5 mM MgCl2; incubation at 37° C.). The reaction mixture was passed through a Sep-Pak C18 cartridge which was washed with 0.2M NaCl to ensure separation of all hydrophilic material. The lipid fraction was then eluted with MeOH. The incorporation of radioactivity into lipids was measured by scintillation counting.
In a first experiment, the transfer was monitored with time, using 0.2 mM (28) and 0.1 mU fucosyltransferase/100 μl incubation, and compared to a control incubation containing no acceptor. […] In a further experiment, but using 0.5 mU fucosyl transferase over 1 hour, the transfer of fucose was measured at 0.2, 1, 5 and 24 mM concentrations of (28). The percentage of fucose transferred was respectively about 50%, 60%, 65% and 70%.
Competition experiments were also carried out, using 0.2 mM acceptor (28), in the presence of various concentrations (0 to 2 mM) of N-acetyllactosamine which is a known substrate for the enzyme. The samples were analysed as before, for incorporation of fucose into lipid.

[5] = acceptor conc. 12 mM, bracketed numbers are background

Structure (SMILES): CCCCCCCCCCCCC/C=C/[C@@H](O)[C@@H](N)CO[C@@H]1O[C@H](CO)[C@@H](O[C@@H]2O[C@H](CO)[C@H](O)[C@H](O)[C@H]2O)[C@H](O)[C@H]1O [(1)]
α2-3ST yield (%) of incorporation of radio-labelled CMP-NANA ([1]; acceptor conc. 12 mM): 1.5% | α2-3ST yield (%) of incorporation of radio-labelled CMP-NANA ([1]; acceptor conc. 100 mM): 2.4% and 2.5%

Structure (SMILES): CCCCCCCCCCCCC/C=C/[C@@H](O)[C@H](CO[C@@H]1O[C@H](CO)[C@@H](O[C@@H]2O[C@H](CO)[C@H](O)[C@H](O)[C@H]2O)[C@H](O)[C@H]1O)N=[N+]=[N-] [(20)]
α2-6 ST yield (%) of incorporation of radio-labelled CMP-NANA [2, 5]: 2.9% and 2.8% | α2-3ST yield (%) of incorporation of radio-labelled CMP-NANA ([1]; acceptor conc. 100 mM): 2.5%

Structure (SMILES): CCCCCCCCCCCCC/C=C/[C@@H](O)[C@H](CO[C@@H]1O[C@H](CO)[C@@H](O)[C@H](O)[C@H]1NC(C)=O)N=[N+]=[N-] [(27)]
Conversion (galactosylation) by galactosyltransferase [3]: galactosylated

Structure (SMILES): CCCCCCCCCCCCC/C=C/[C@@H](O)[C@H](CO[C@@H]1O[C@H](CO)[C@@H](O[C@@H]2O[C@H](CO)[C@H](O)[C@H](O)[C@H]2O)[C@H](O)[C@H]1NC(C)=O)N=[N+]=[N-] [(28)]
α2-6 ST yield (%) of incorporation of radio-labelled CMP-NANA ([2]; acceptor conc. 6 mM, bracketed numbers are background): 22.2% | α2-6 ST yield (%) of incorporation of radio-labelled CMP-NANA [2, 5]: 23.2% | α2-6 ST yield (%) of incorporation of radio-labelled CMP-NANA ([2]; acceptor conc. 50 mM, bracketed numbers are background): 47.0% | α2-6 ST yield (%) of incorporation of radio-labelled CMP-NANA ([2]; acceptor conc. 100 mM, bracketed numbers are background): 59.8% | α2-3ST yield (%) of incorporation of radio-labelled CMP-NANA ([1]; acceptor conc. 6 mM): 1.1% | α2-3ST yield (%) of incorporation of radio-labelled CMP-NANA ([1]; acceptor conc. 100 mM): 1.5% and 1.2% | Competition for incorporation of fucose into lipid (acceptor quality) [4]: similarly good acceptors | Incorporation of label into lipid monitored with time ([4]; 0.2 mM acceptor, 0.1 mU fucosyltransferase/100 μl, vs control without acceptor): incorporation of label into lipid above background | Percentage of fucose transferred ([4]; 0.2 mM acceptor): about 50% | Percentage of fucose transferred ([4]; 1 mM acceptor): ~60% | Percentage of fucose transferred ([4]; 5 mM acceptor): ~65% | Percentage of fucose transferred ([4]; 24 mM acceptor): ~70%

Structure (SMILES): CCCCCCCCCCCCC/C=C/[C@@H](O)[C@H](CO[C@@H]1O[C@H](CO)[C@@H](O)[C@H](O)[C@H]1NC(C)=O)NC(=O)CCCCCCCCCCCCCCCCCCCCCCC [(40), GlcNAc ceramide]
Conversion (galactosylation) by galactosyltransferase [3]: No conversion

Next, values leading:

Competition for incorporation of fucose into lipid (acceptor quality) [4]: similarly good acceptors
Structure (SMILES): CC(=O)N[C@H]1C(O)O[C@H](CO)[C@@H](O[C@@H]2O[C@H](CO)[C@H](O)[C@H](O)[C@H]2O)[C@@H]1O (stereo partly drawn) [N-acetyllactosamine, reference compound]

α2-6 ST yield (%) of incorporation of radio-labelled CMP-NANA ([2]; acceptor conc. 43 mM): 2.7% | Transfer by α2-3 sialyltransferase / acceptor substrate (in words) ([1]; α2-3 sialyltransferase from porcine liver): not an acceptor substrate
Structure (SMILES): CCCCCCCCCCCCC/C=C/[C@@H](O)[C@H](CO[C@@H]1O[C@H](CO)[C@@H](O[C@@H]2O[C@H](CO)[C@H](O)[C@H](O)[C@H]2O)[C@H](O)[C@H]1O)NC(=O)CCCCCCCCCCCCCCCCC [lactosyl-ceramide, Lactosylceramide, reference compound]
